Data as given in patent publication US20070149535A1, “Protein kinase inhibitors” (ONCALIS AG, priority 2004, published 2007).

Key:
Test in all cases: Yeast growth assay, specificity profiling
Assay type in all cases: cell-based
Parameters in all cases: key: “−” indicates no growth restoration i.e. no activity against the particular kinase; “+”, “++”, and “+++” indicate activity detected by restoration of growth, classified into three categories of potency; “+”, “++”, and “+++” indicate activity detected by restoration of growth, classified into three categories of potency; “+”, “++”, and “+++” indicate activity detected by restoration of growth, classified into three categories of potency
Conditions in all cases: 7 concentrations between 0.2 and 100 μM
VEGFR2 = target: T1, VEGFR2 (Homo sapiens, UniProt P35968)
T1 construct: expressed in transfected cells; host or cells: yeast
T1 sequence (P35968 20-1356): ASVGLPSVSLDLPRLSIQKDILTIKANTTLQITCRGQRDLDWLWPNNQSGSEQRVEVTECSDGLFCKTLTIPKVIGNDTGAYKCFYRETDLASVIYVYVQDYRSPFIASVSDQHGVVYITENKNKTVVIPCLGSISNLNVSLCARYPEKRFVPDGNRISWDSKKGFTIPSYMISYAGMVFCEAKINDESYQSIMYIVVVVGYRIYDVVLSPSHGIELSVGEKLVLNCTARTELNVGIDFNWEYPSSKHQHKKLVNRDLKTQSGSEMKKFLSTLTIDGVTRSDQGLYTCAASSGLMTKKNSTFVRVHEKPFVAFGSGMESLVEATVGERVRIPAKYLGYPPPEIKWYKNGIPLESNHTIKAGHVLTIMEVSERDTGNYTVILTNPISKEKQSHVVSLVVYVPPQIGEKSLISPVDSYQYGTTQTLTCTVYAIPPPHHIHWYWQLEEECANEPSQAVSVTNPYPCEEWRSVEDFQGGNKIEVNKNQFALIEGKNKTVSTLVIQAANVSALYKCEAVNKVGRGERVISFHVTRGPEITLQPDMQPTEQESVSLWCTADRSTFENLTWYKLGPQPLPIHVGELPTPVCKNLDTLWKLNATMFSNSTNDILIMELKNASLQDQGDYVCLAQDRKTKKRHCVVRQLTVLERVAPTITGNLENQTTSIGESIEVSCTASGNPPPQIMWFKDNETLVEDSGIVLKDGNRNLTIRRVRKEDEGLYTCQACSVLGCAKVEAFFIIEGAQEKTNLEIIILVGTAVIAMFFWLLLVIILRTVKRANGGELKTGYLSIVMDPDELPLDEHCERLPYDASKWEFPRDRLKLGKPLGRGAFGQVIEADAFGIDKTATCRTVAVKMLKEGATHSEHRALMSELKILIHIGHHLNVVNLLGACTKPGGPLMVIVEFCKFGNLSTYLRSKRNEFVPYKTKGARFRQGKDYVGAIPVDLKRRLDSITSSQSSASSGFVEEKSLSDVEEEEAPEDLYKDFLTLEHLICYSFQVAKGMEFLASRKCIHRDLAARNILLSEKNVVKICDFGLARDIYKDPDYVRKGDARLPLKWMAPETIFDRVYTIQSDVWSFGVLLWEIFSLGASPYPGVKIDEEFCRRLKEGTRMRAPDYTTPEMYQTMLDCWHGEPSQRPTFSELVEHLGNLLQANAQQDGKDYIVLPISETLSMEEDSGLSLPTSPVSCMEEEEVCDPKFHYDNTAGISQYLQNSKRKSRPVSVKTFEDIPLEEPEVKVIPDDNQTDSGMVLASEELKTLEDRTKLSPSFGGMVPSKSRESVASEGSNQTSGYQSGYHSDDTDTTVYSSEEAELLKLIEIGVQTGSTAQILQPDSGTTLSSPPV
Method: (§1) Specificity Profiling: Yeast Growth Assay
(§2) The yeast growth assay was performed as described in “Method for the identification and/or validation of receptor tyrosine kinase inhibitors” PCT/CH03/00694 (2004/10/24), section “Modes for Carrying out the Invention, Experiment 1 and Experiment 2.
(§3) Briefly, yeast cells carrying plasmids with the RTK of interest were grown in glucose containing medium (repressing expression). The cultures were diluted into galactose containing medium, which induces the expression of the kinase. Expression of the kinase inhibits growth of the yeast cells, which allows for positive selection of kinase inhibitors restoring growth of cells. Compounds were titrated at 7 concentrations between 0.2 and 100 μM.
(§4) Specificity profiling of compounds, using the yeast growth assay method described above. “−” indicates no growth restoration i.e. no activity against the particular kinase, “+”, “++”, and “+++” indicate activity detected by restoration of growth, classified into three categories of potency according to the maximal level of growth restoration reached and the concentration at which the maximal growth restoration is reached.

IGF-1R = target: T2, IGF-1R (Homo sapiens, UniProt P08069)
T2 construct: expressed in transfected cells; host or cells: yeast
T2 sequence (P08069 31-1367): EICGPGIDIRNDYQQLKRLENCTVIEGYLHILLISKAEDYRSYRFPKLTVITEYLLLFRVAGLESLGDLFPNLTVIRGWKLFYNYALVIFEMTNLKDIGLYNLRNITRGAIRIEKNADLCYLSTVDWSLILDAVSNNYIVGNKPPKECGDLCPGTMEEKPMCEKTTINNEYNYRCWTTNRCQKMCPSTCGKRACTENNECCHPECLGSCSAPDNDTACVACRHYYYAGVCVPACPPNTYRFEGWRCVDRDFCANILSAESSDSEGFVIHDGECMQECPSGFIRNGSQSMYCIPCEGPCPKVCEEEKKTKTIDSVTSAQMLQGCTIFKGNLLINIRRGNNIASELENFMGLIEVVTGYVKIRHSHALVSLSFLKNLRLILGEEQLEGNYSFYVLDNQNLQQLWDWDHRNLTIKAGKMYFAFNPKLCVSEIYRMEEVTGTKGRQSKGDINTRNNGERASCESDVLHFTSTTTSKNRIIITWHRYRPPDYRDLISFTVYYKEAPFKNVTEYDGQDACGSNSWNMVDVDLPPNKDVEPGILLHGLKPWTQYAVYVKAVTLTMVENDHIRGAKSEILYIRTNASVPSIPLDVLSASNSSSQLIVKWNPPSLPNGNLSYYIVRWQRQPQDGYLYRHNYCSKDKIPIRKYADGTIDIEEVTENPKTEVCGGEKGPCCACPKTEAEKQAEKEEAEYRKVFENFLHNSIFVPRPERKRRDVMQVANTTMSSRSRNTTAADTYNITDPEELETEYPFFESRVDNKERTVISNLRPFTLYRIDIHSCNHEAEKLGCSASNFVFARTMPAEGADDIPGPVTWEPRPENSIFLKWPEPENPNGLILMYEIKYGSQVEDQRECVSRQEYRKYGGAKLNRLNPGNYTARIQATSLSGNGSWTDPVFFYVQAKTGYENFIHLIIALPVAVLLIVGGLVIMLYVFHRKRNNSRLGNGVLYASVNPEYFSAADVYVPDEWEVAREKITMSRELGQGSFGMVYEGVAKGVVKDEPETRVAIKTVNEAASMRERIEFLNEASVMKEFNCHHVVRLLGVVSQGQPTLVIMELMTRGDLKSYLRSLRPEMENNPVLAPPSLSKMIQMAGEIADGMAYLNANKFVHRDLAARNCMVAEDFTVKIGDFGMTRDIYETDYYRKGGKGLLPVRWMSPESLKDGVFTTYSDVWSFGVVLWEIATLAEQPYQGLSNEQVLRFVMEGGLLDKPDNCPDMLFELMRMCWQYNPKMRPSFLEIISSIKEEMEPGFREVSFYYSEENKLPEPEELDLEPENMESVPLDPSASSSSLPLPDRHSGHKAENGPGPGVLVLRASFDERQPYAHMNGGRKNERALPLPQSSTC
Method: as §1, §2, §3, §4

EphB4 = target: T3, EphB4 (Homo sapiens, UniProt P54760)
T3 construct: expressed in transfected cells; host or cells: yeast
T3 sequence (P54760 16-987): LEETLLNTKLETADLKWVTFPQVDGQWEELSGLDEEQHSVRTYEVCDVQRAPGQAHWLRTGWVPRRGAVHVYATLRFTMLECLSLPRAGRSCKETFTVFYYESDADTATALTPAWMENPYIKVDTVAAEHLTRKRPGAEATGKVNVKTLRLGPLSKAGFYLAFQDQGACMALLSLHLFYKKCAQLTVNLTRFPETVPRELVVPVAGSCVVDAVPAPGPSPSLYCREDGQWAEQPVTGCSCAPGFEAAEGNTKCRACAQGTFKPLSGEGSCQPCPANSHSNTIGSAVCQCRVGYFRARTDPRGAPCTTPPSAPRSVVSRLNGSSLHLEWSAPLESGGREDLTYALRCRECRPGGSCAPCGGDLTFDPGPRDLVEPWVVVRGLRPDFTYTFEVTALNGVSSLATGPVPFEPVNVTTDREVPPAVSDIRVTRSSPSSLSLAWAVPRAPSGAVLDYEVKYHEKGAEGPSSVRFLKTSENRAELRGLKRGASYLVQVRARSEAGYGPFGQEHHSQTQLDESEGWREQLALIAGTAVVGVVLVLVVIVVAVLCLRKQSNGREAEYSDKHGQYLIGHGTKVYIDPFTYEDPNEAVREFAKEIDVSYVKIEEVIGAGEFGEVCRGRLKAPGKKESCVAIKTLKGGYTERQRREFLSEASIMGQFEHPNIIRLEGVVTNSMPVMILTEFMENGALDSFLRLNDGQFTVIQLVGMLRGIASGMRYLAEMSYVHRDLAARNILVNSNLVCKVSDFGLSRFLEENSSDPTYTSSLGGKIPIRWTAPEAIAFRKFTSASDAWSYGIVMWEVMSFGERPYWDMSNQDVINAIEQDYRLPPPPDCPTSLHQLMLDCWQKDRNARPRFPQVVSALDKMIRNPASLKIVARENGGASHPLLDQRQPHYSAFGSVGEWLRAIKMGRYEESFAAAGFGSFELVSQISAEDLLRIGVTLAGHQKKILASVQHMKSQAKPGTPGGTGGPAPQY
Method: as §1, §2, §3, §4

InsR = target: T4, InsR (Homo sapiens, UniProt P06213)
T4 construct: expressed in transfected cells; host or cells: yeast
T4 sequence (P06213 28-1382): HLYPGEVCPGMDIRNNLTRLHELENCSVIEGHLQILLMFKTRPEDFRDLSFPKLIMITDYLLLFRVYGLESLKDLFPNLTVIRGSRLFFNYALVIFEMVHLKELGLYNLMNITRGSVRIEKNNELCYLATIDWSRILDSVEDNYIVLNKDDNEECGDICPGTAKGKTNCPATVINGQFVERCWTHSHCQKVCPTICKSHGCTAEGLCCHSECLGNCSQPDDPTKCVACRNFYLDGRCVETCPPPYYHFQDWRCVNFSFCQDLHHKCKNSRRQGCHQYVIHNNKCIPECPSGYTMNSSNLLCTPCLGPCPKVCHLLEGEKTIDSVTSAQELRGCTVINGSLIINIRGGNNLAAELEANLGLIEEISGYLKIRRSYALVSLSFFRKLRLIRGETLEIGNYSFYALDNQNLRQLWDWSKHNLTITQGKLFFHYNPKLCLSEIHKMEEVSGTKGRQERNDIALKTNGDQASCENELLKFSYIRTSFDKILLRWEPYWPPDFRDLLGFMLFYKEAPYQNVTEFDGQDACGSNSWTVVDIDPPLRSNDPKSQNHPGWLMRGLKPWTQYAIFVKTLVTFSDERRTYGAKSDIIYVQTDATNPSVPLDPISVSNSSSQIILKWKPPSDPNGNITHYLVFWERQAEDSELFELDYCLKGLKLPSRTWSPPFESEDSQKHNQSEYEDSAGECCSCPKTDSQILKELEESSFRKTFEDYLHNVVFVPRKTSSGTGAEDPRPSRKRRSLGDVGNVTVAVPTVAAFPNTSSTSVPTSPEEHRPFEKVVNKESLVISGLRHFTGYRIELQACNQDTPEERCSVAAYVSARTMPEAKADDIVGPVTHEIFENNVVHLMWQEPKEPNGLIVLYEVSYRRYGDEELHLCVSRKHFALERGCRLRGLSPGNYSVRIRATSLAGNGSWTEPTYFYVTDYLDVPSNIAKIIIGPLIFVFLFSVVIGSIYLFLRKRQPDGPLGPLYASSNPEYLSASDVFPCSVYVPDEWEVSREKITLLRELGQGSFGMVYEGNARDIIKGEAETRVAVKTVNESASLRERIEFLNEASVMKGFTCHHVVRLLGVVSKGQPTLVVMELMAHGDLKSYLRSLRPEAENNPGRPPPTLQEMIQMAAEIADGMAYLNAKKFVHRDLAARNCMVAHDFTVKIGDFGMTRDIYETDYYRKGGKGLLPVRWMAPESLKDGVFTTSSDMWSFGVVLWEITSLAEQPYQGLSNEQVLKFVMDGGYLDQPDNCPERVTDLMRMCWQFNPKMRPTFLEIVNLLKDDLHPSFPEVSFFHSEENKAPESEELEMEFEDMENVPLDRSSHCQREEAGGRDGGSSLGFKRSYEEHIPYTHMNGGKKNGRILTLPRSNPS
Method: as §1, §2, §3, §4

RET = target: T5, RET (Homo sapiens, UniProt P07949)
T5 construct: expressed in transfected cells; host or cells: yeast
T5 sequence (P07949 29-1114): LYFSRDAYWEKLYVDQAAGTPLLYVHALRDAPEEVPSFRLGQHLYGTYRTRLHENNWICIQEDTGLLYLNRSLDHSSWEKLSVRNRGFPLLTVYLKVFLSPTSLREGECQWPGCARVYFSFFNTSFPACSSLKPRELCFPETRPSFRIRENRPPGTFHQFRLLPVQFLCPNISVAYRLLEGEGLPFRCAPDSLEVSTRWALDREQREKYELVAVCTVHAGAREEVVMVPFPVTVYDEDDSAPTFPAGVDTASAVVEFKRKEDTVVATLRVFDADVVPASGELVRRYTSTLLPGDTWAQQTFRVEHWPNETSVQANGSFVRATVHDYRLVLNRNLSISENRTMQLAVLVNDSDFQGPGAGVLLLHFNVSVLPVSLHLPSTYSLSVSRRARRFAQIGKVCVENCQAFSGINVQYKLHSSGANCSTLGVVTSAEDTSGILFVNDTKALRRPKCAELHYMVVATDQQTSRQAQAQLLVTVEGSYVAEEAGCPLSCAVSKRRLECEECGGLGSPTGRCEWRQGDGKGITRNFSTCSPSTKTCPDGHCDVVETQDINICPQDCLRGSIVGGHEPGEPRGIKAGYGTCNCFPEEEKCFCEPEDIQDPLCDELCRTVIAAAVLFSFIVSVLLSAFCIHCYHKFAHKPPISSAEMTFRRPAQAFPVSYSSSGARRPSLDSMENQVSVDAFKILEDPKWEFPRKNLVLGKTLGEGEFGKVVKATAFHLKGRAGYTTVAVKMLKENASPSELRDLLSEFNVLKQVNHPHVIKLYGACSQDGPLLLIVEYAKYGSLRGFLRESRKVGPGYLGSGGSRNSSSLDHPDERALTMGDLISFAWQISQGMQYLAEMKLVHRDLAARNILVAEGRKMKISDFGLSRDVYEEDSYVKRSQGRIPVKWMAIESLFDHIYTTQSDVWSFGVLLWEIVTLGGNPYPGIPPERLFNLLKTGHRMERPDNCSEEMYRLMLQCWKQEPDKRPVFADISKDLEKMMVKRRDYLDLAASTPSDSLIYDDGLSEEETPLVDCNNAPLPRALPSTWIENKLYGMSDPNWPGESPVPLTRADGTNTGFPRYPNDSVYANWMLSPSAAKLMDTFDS
Method: as §1, §2, §3, §4

Row | Structure (SMILES) | VEGFR2 growth restoration (VEGFR2) | IGF-1R growth restoration (IGF-1R) | EphB4 growth restoration (EphB4) | InsR growth restoration (InsR) | RET growth restoration (RET)
1 | Cc1nccn2c(Nc3ccc(F)c(F)c3)c(-c3ccccc3)nc12 [compound 45, (3,4-Difluoro-phenyl)-(8-methyl-2-phenyl-imidazo[1,2-a]pyrazin-3-yl)-amine] | − | − | +++ | − | −
2 | Cc1cccc(Nc2c(-c3ccccc3)nc3c(C)nccn23)c1 [compound 43, (8-Methyl-2-phenyl-imidazo[1,2-a]pyrazin-3-yl)-m-tolyl-amine] | − | − | +++ | − | −
3 | Cc1nccn2c(Nc3ccccc3)c(-c3ccccc3)nc12 [compound 39, (8-Methyl-2-phenyl-imidazo[1,2-a]pyrazin-3-yl)-phenyl-amine] | − | − | +++ | − | +
4 | CC(=O)Nc1ccc(-c2nc3c(C)nccn3c2Nc2cccc(Cl)c2)cc1 [compound 33, N-{4-[3-(3-Chloro-phenylamino)-8-methyl-imidazo[1,2-a]pyrazin-2-yl]-phenyl}-acetamide] | − | − | +++ | − | −
5 | Cc1cccc(Nc2c(-c3ccccc3)nc3cnccn23)c1 [compound 34, (2-Phenyl-imidazo[1,2-a]pyrazin-3-yl)-m-tolyl-amine] | − | − | + − | − | −
6 | Fc1cccc(Nc2c(-c3ccccc3)nc3cnccn23)c1 [compound 26, (3-Fluoro-phenyl)-(2-phenyl-imidazo[1,2-a]pyrazin-3-yl)-amine] | − | − | ++ | − | −
7 | Brc1cccc(Nc2c(-c3ccccc3)nc3cnccn23)c1 [compound 14, (3-Bromo-phenyl)-(2-phenyl-imidazo[1,2-a]pyrazin-3-yl)-amine] | − | − | − | − | −
8 | CC(=O)Nc1ccc(-c2nc3cnccn3c2Nc2cccc(Cl)c2)cc1 [compound 8, N-{4-[3-(3-Chloro-phenylamino)-imidazo[1,2-a]pyrazin-2-yl]-phenyl}-acetamide] | − | − | ++ | − | −
9 | CNc1nccn2c(Nc3cccc(Cl)c3)c(-c3ccccc3)nc12 [compound 20, N′3-(3-Chloro-phenyl)-N′8-methyl-2-phenyl-imidazo[1,2-a]pyrazine-3,8-diamine] | − | − | − | − | −

Second part, the molecule after the results:

Row | VEGFR2 growth restoration (VEGFR2) | IGF-1R growth restoration (IGF-1R) | EphB4 growth restoration (EphB4) | InsR growth restoration (InsR) | RET growth restoration (RET) | Structure (SMILES)
10 | − | − | + | − | + | Clc1ccc(Nc2c(-c3ccccc3)nc3cnccn23)cc1 [compound 16, (4-Chloro-phenyl)-(2-phenyl-imidazo[1,2-a]pyrazin-3-yl)-amine]
11 | − | − | ++ | − | − | COc1cccc(-c2nc3c(C)nccn3c2Nc2cccc(Cl)c2)c1 [compound 48, (3-Chloro-phenyl)-[2-(3-methoxy-phenyl)-8-methyl-imidazo[1,2-a]pyrazin-3-yl]-amine]
12 | − | − | +++ | − | − | Cc1nccn2c(Nc3cccc(F)c3)c(-c3ccccc3)nc12 [compound 44, (3-Fluoro-phenyl)-(8-methyl-2-phenyl-imidazo[1,2-a]pyrazin-3-yl)-amine]
13 | − | − | ++ | + | − | c1ccc(Nc2c(-c3ccc(N4CCOCC4)cc3)nc3cnccn23)cc1 [compound 38, [2-(4-Morpholin-4-yl-phenyl)-imidazo[1,2-a]pyrazin-3-yl]-phenyl-amine]
14 | − | − | ++ | − | − | Fc1ccc(Nc2c(-c3ccccc3)nc3cnccn23)cc1F [compound 30, (3,4-Difluoro-phenyl)-(2-phenyl-imidazo[1,2-a]pyrazin-3-yl)-amine]
15 | − | − | ++ | − | + | c1ccc(Nc2c(-c3ccccc3)nc3cnccn23)cc1 [compound 23, Phenyl-(2-phenyl-imidazo[1,2-a]pyrazin-3-yl)-amine]
16 | − | − | + | − | + − | COc1cccc(-c2nc3cnccn3c2Nc2cccc(Cl)c2)c1 [compound 7, (3-Chloro-phenyl)-[2-(3-methoxy-phenyl)-imidazo[1,2-a]pyrazin-3-yl]-amine]
17 | − | − | + | − | + | Clc1cccc(Nc2c(-c3ccccc3)nc3cnccn23)c1 [compound 35, (3-Chloro-phenyl)-(2-phenyl-imidazo[1,2-a]pyrazin-3-yl)-amine]
18 | − | − | ++ | − | − | COc1cccc(-c2nc3c(C)nccn3c2Nc2cccc(C)c2)c1 [compound 42, [2-(3-Methoxy-phenyl)-8-methyl-imidazo[1,2-a]pyrazin-3-yl]-m-tolyl-amine]
